Experimental data taken from patent US10525021B2, “Mitochondrial uncouplers for treatment of metabolic diseases and cancer” (RUTGERS, THE STATE UNIVERSITY OF NEW JERSEY, priority 2014, dated 2020).

test system: AMPK; experiment: AMPK activation analysis by immunoblotting with antibody against phosphorylated AMPK; format: cell-based; details: two-hour treatment, phospho-AMPKα (Thr172) immunoblot
Description: AMPK activation analysis by immunoblotting assay with antibody against phosphorylated AMPK: mouse pancreatic cancer cell line, Panc02, or NIH-3T3 fibroblasts, or human liver carcinoma cell line HepG2, were cultured in Dulbecco's modified Eagle's medium (DMEM) supplemented with 10% (vol/vol) fetal bovine serum, 100 unit·ml^−1 of penicillin, 100 μg·ml^−1 of streptomycin and 0.29 mg·ml^−1 of L-glutamine at 37° C. and 5% CO2. For treatment, individual compound was first dissolved in DMSO to make stock solution, and then was added directly to the culturing medium to desired concentration by at least 1:1000 dilution. After a two-hour treatment, cells were collected and homogenized within lysis buffer containing 10 mM TRIS-HCl (pH 7.9), 10% glycerol, 0.1 mM EDTA, 100 mM KCl, 0.2% NP-40, 0.5 mM PMSF, 1 mM DTT, mini-complete protease inhibitor cocktail (Roche, 11836153001), and phosphatase inhibitor cocktail (Roche, 04906845001) if required. Nuclei and insoluble debris were pelleted in an Eppendorf micro-centrifuge at 10,000 rpm for 5 min at 4° C. Cell extracts were then stored at −20° C. or immediately subjected to sodium dodecyl sulfate-polyacrylamide gel electrophoresis (SDS-PAGE). […] Quantification was determined by measuring band intensity using ImageJ software and calculating the ratio of protein of interesting to internal loading control. […]

With `O=C(Nc1cnc(Br)cn1)c1cc(Cl)ccc1O` [Compound 2, N-(5-Bromopyrazin-2-yl)-5-chloro-2-hydroxybenzamide] the “Concentrations for AMPK activation” value was “*** (<=10 μM)”.
For `N#Cc1ccc(NC(=O)c2cc(Cl)ccc2OP(=O)(O)O)c(Cl)c1` [Compound 13, 4-Chloro-2-((2-chloro-4-cyanophenyl)carbamoyl)phenyl dihydrogen phosphate], the “Concentrations for AMPK activation” value was “*** (<=10 μM)”.

test system: mouse colon cancer cell line MC38; experiment: Clonogenic assay for cell proliferation inhibition (colony formation); format: cell-based; details: MC-38, MC38 cells, treated 24-48 hrs, colonies counted after 2 weeks, read-out: IC50 concentrations (inhibition of colony formation)
Description: Clonogenic assay for determining activity of cell proliferation inhibition: mouse colon cancer cell line MC38 was seeded onto 6-well plates at the density of about 200 cells per well, grown under medium conditions as described above, after attachment, cells were treated with ascending concentrations of example compounds for 24-48 hrs. The drug-containing medium was then removed and fresh medium without drug was added to each well. Cells were then grown for 2 weeks for colony formation. During the two weeks, old medium was aspirated out and fresh drug-free medium was added to the wells every two days. At the end of the experiment, the colonies were counted for the treatment at each concentration. IC50 is defined as the concentration that inhibits 50% of colony formation as compared to the no drug treatment control.

With `N#Cc1ccc(NC(=O)c2cc(Cl)ccc2OP(=O)(O)O)c(Cl)c1` [Compound 14, Sodium 4-chloro-2-((2-chloro-4-cyanophenyl)carbamoyl)phenyl phosphate] the IC50 was no more than 10 µM.

test system: NIH-3T3 cells, or HepG2 cells; experiment: Mitochondrial uncoupling activity assay (loss of mitochondrial TMRE staining in live cells); format: cell-based; details: 2 h, read-out: Activities (mitochondrial uncoupling activity, EC50)
Description: Mitochondrial uncoupling analyses in live cells were performed with cultured mammalian cells, the NIH-3T3 cells, or HepG2 cells. Cells were seeded onto 6-well plate and cultured in DMEM medium supplemented with 10% fetal bovine serum and 2 mM glutamine. Cells were allowed to grow to logarithmic growth phase prior to experiments. The cells were treated with each individual synthesized compound at various concentrations for two hours, followed by staining with TMRE (tetramethylrhodamine ethyl ester) at final concentration of 100 nM for 15 minutes. The cells were then washed once with PBS, and examined under fluorescence microscopy. A positive control of cells treated with various concentrations of niclosamide ethanolamine were used as positive control. Percentage of cells losing mitochondrial TMRE staining was used as a quantification of mitochondrial uncoupling activity.

Compared with `O=C(Nc1cnccn1)c1cc(Cl)ccc1O` [Compound 1, 5-Chloro-2-hydroxy-N-(pyrazin-2-yl)benzamide], `O=C(Nc1cccnn1)c1cc(Cl)ccc1O` [Compound 9, 5-Chloro-2-hydroxy-N-(pyridazin-3-yl)benzamide] is higher in EC50: less than 10 µM for the first, greater than 50 µM for the second. The first is the more potent here.

`N#Cc1cnc(NC(=O)c2cc(Cl)ccc2O)cn1` [Compound 3, 5-Chloro-N-(5-cyanopyrazin-2-yl)-2-hydroxybenzamide] and `N#Cc1cnc(NC(=O)c2cc(Cl)ccc2OP(=O)(O)O)cn1` [Compound 19, 4-Chloro-2-((5-cyanopyrazin-2-yl)carbamoyl)phenyl dihydrogen phosphate] cannot be ordered by EC50: less than 10 µM for the first, less than 10 µM for the second.

First: N#Cc1cnc(NC(=O)c2cc(Cl)ccc2O)c(Cl)n1 [Compound 4, 5-Chloro-N-(3-chloro-5-cyanopyrazin-2-yl)-2-hydroxybenzamide]
Second: N#Cc1ccc(NC(=O)c2cc(Cl)ccc2O)nc1 [Compound 11, 5-Chloro-N-(5-cyanopyridin-2-yl)-2-hydroxybenzamide]
The EC50 of the first is higher: greater than 50 µM for the first, 10 to 50 µM for the second.

First: O=C(Nc1cncnc1)c1cc(Cl)ccc1O [Compound 5, 5-Chloro-2-hydroxy-N-(pyrimidin-5-yl)benzamide]
Second: O=C(Nc1ccc(Cl)nn1)c1cc(Cl)ccc1O [Compound 10, 5-Chloro-N-(6-chloropyridazin-3-yl)-2-hydroxybenzamide]
The EC50 of the first is higher: greater than 50 µM for the first, 10 to 50 µM for the second.

Going from `CCOP(=O)(O)Oc1ccc(Cl)cc1C(=O)Nc1ccc(C#N)cc1Cl` [Compound 12, 4-Chloro-2-((2-chloro-4-cyanophenyl)carbamoyl)phenyl ethyl hydrogen phosphate] to `N#Cc1ccc(NC(=O)c2cc(Cl)ccc2OP(=O)(O)O)c(Cl)c1` [Compound 13, 4-Chloro-2-((2-chloro-4-cyanophenyl)carbamoyl)phenyl dihydrogen phosphate], the EC50 falls from greater than 50 µM to less than 10 µM. The second is the more potent here.

`O=C(Nc1nc2c(F)cccc2s1)c1cc(Cl)ccc1O` [Compound 18, 5-Chloro-N-(4-fluorobenzo[d]thiazol-2-yl)-2-hydroxybenzamide] and `O=C(Nc1nc2c(C(F)(F)F)cccc2s1)c1cc(Cl)ccc1O` [Compound 29, 5-Chloro-2-hydroxy-N-(4-(trifluoromethyl)benzo[d]thiazol-2-yl)benzamide] cannot be ordered by EC50: less than 10 µM for the first, less than 10 µM for the second.

Compound `O=C(Nc1nc2ccc(C(F)(F)F)cc2s1)c1cc(Cl)ccc1O` [Compound 31, 5-chloro-2-hydroxy-N-(6-(trifluoromethyl)benzo[d]thiazol-2-yl)benzamide] has an EC50 of less than 10 µM.

same assay, conditions: 2 h; two-hour treatment, TMRE 100 nM staining; concentration at which mitochondrial TMRE fluorescence is reduced to about 50%; read-out: Activities (mitochondrial uncoupling activity, EC50)

`O=C(Nc1cnc(Br)cn1)c1cc(Cl)ccc1O` [Compound 2, N-(5-Bromopyrazin-2-yl)-5-chloro-2-hydroxybenzamide] and `O=C(Nc1cnc(C(F)(F)F)cn1)c1cc(Cl)ccc1O` [Compound 35, 5-chloro-2-hydroxy-N-(5-(trifluoromethyl)pyrazin-2-yl)benzamide] cannot be ordered by EC50: less than 10 µM for the first, less than 10 µM for the second.

Compared with `O=C(Nc1cnc(Cl)nc1Cl)c1cc(Cl)ccc1O` [Compound 6, 5-Chloro-N-(2,4-dichloropyrimidin-5-yl)-2-hydroxybenzamide], `O=C(Nc1cnc(Cl)nc1)c1cc(Cl)ccc1O` [Compound 7, 5-Chloro-N-(2-chloropyrimidin-5-yl)-2-hydroxybenzamide] is lower in EC50: greater than 50 µM for the first, less than 10 µM for the second. The second is the more potent here.

Compared with `N#Cc1ncc(NC(=O)c2cc(Cl)ccc2O)cn1` [Compound 8, 5-Chloro-N-(2-cyanopyrimidin-5-yl)-2-hydroxybenzamide], `N#Cc1cnc(NC(=O)c2cc(Cl)ccc2O)s1` [Compound 16, 5-chloro-N-(5-cyanothiazol-2-yl)-2-hydroxybenzamide] is lower in EC50: 10 to 50 µM for the first, less than 10 µM for the second.

First: O=C(Nc1ccc2scnc2c1)c1cc(Cl)ccc1O [Compound 15, N-(Benzo[d]thiazol-5-yl)-5-chloro-2-hydroxybenzamide]
Second: O=C(Nc1ccc2nccnc2c1)c1cc(Cl)ccc1O [Compound 22, 5-Chloro-2-hydroxy-N-(quinoxalin-6-yl)benzamide]
The EC50 of the first is lower: less than 10 µM for the first, 10 to 50 µM for the second. The first is the more potent here.

First: O=C(Nc1ccc2ccncc2c1)c1cc(Cl)ccc1O [Compound 21, 5-Chloro-2-hydroxy-N-(isoquinolin-7-yl)benzamide]
Second: N#Cc1ccc2nc(NC(=O)c3cc(Cl)ccc3O)sc2c1 [Compound 36, 5-chloro-N-(6-cyanobenzo[d]thiazol-2-yl)-2-hydroxybenzamide]
The EC50 of the first is higher: 10 to 50 µM for the first, less than 10 µM for the second.
